≈ marks a conversion by molar mass, not a printed value. Like-named read-outs stand apart in the source and are kept apart here.
What was measured:
Format in all cases: cell-based
[1] = test system: Neospora caninum tachyzoites; assay: Screening of compounds against Neospora caninum cell cultures in vitro (microscopic evaluation of infected host cell monolayer); parameters: key: 0 = no effect; 1 = weak effect; 2 = full effect; T = cytotoxic; details: VERO or ED host cells, evaluation 4 days after treatment
Procedure: (a) Screening of compounds against Neospora Caninum cell cultures in vitro.
Screening was conducted in 96-well plates (Falcon 3872). A monolayer of host cells (VERO or ED) were placed on a cell culture plate. Non-infected monolayers of cells were cultured in two 50 ml tissue culture bottles (50 cm^3 cell culture area). The cell layer was detached with trypsin-EDTA (5 ml. Gibco 45300-019) in a CO2-culture cupboard at 37°C. After 10 minutes, most of the cells were detached. The cells were transferred with a 5 ml pipette into a 50 ml centrifuge tube (Greiner, B769331) containing about 1 ml warmed fetal calf serum. After centrifugation for 5 minutes at 1500 rpm (Varifuge 3.0, Heraeus), the liquid was removed and the cell pellet suspended in RPMI medium (100 ml, 95% RPMI 1640, 2% FCS, 1% L-glutamine, 1% sodium hydrogen carbonate, 1% penicillin/streptomycin). The cell suspension was pipetted into six 96-well plates at 150 µl per well. The coated cell culture plates were placed in an incubation cupboard at 37°C under 5% CO2 for 24 hours. The cells were then infected with Neospora caninum tachyzoites at a concentration of 48,000 tachyzoites per well. This was followed by incubation at 37°C under 5% CO2 for 24 hours.
The test compounds (0.5 - 1.5 mg) were weighed into 1.5 ml eppendorf vessels and dissolved in 1 ml dimethyl sulphoxide, corresponding to a dilution of about 1 x 10^-3 g ml^-1. The medium used for further dilution consisted of 87% RPMI 1640, 10% FCS, 1% L-glutamine, 1% sodium hydrogen carbonate, 1% penicillin/streptomycin. In the first screening, concentrations of 10^-5, 10^-6 and 10^-7 g ml^-1 were used. The diluted preparations were then transferred to the cell culture plates at a volume of 150 µl per well after 24 hour infection with Neospora caninum. For the first row, untreated medium was used; this row contained infected and uninfected cells as controls. The cell plate was incubated at 37°C under 5% CO2 for 5 days. Microscopic evaluation was conducted 4 days after treatment and 5 days after infection at a magnification of 25 x 10 in an inverse microscope according to the following evaluation scheme.

[2] = test system: Eimeria tenella; assay: Screening of compounds against Eimeria tenella cell cultures in vitro (chick kidney cell monolayers, microscopic evaluation); details: chick kidney cells, day 5 post infection
Procedure: (b) Screening of Compounds again Eimeria Tenella cell cultures in vitro
Cells from kidneys of 19 day old chicks are cultured as monolayers in 96-well plates (Falcon 3872) in a medium of Hanks lactalbumine hydrolysate, 5% fetal calf serum, 1% glutamine and 1% non-essential amino acids. After two days at 42°C under 5% CO2, the culture was infected with excised sporozoites of Eimeria tenella at about […] per well. Test compounds were dissolved in DMSO and diluted with culture medium to a maximum end concentration of 10µg ml^-1. The dilution steps were 1:10. On day 5 post infection, the cultures were evaluated under a microscope at 100-fold magnification and the condition of the host cells and the amount of intact schizonts and free merozoites was determined.

[3] = test system: Plasmodium Falciparum D6 Strain (Chloroquine sensitive); assay: In vitro screening against Plasmodium falciparum, radiolabelled hypoxanthine incorporation, D6 strain; details: for IC50 / IC90: Plasmodium falciparum; for IC50: read-out: In vitro activity: IC50; for IC90: read-out: In vitro activity: IC90
Excerpt: (§1) (c) In Vitro Screening against Plasmodium Falciparum
Two parasite strains - W2 resistant to chloroquine, and D6 sensitive to chloroquine but resistant to mefloquine were used. In Table IV below, the best compounds should show no cross resistance between the two strains.
(§2) The assay relies on incorporation of radiolabelled hypoxanthine by the parasite and inhibition of incorporation is attributed to activity of known or candidate antimalarial drugs. For each assay, proven antimalarials such as chloroquine, mefloquine, quinine, artemisinin and pyrimethamine were used as controls. The incubation period was 66 hours, and the starting parasitemia was 0.2% with 1% hematocrit. The medium was an RPMI-1640 culture with no folate or p-aminobenzoic acid. Albumax rather than 10% normal heat inactivated human plasma was used as, with Albumax, less protein binding is observed, and compounds elicit slightly higher activities in this model. If a compound was submitted with no prior knowledge of activity, it was dissolved directly in dimethyl sulphoxide (DMSO), and diluted 400 fold with complete culture medium. The unknown compound was started at a maximum concentration of 50,000 ng ml^-1 and sequentially diluted 2-fold for 11 times to give a concentration range of 1048 fold. These dilutions were performed automatically by a Biomek 1000 Liquid Handling System in 96-well microtiter plates. The diluted drugs were then transferred to test plates, 200 µl of parasitized erythrocytes were added, and incubated at 37°C in a controlled environment of 5% CO2, 5% O2 and 90% N2. After 42 hours, 25 µl of ^3H-hypoxanthine was added, and the plates incubated for an additional 24 hours. After 66 hours, the plates were frozen at -70°C to lyse the red cells, and then thawed and harvested onto glass fiber filter mats in a 96-well harvester. The filter mats were then counted in a scintillation counter. For each drug, the concentration response profile was determined and 50%, 90% and 10% inhibitory concentrations (IC50, IC90 and IC10) were determined by a non-linear logistic dose response analysis program.
(§3) A prescreen format can be used wherein a 3-dilution assay may be used to determine activity at high medium or low concentrations. The concentrations were selected as 50,000, 500 and 50 ng ml^-1. These were performed in duplicate on a 96-well format plate with 14 test compounds and one known (standard) compound per plate. The system was automated with a Biomek diluter for mixing and diluting the drugs, and adding drugs and parasites to a test plate.
In the prescreen format, if the ANALYSIS FIELD (AF) has a "<", then the compound was "very active" and the IC values are most likely to be below the last dilution value (in nanograms/ml), which is listed next to AF. In most cases, these compounds were run again at lower starting concentration to determine the true IC value. If the AF has a ">", then the IC value is greater than the prescreen dilution value; thus "AF>250" means that the IC value is greater than 250 ng ml^-1 and no further screening is carried out. In such cases, values of 0.00 are entered for IC values.

[4] = test system: Plasmodium Falciparum W2 Strain (Chloroquine resistant); assay: In vitro screening against Plasmodium falciparum, radiolabelled hypoxanthine incorporation, W2 strain; details: for IC50 / IC90: Plasmodium falciparum; for IC50: read-out: In vitro activity: IC50; for IC90: read-out: In vitro activity: IC90
Procedure: as §1
Two parasite strains - W2 resistant to chloroquine, and D6 sensitive to chloroquine but resistant to mefloquine were used.
as §2, with “Albumax rather than 10% normal heat inactivated human plasma was used as, with Albumax, less protein binding is observed, and compounds elicit slightly higher activities in this model.” left out, “The unknown compound was started at a maximum concentration of 50,000 ng ml^-1 and sequentially diluted 2-fold for 11 times to give a concentration range of 1048 fold.” left out
as §3
In the prescreen format, if the […] […] If the AF has a ">", then the IC value is greater than the prescreen dilution value; thus "AF>250" means that the IC value is greater than 250 ng ml^-1 and no further screening is carried out. In such cases, values of 0.00 are entered for IC values.

[5] = D6 Strain (Chloroquine sensitive), 66 hours incubation

Row | SMILES | Evaluation (observable effect) ([1]; Dose 10^-5 g/ml) | Evaluation (effectiveness) ([2]; Dose 10^-5 g/ml) | Evaluation (effectiveness) ([2]; Dose 10^-6 g/ml) | Evaluation (effectiveness) ([2]; Dose 10^-7 g/ml) | Evaluation (observable effect) ([1]; Dose 10^-6 g/ml) | Evaluation (observable effect) ([1]; Dose 10^-7 g/ml) | In vitro activity: (IC10) [3, 5] | IC50 ([3]; D6, 66 h) | IC90 ([3]; D6, 66 h) | Evaluation (effectiveness) ([2]; Dose 10^-8 g/ml) | IC50 ([4]; W2, 66 h) | IC90 ([4]; W2, 66 h) | In vitro activity: (IC10) ([4]; W2 Strain (Chloroquine resistant), 66 hours incubation) | IC50 [3, 5] | IC90 [3, 5] | In vitro activity: (IC10) ([4]; W2, 66 h)
1 | C[C@@H]1CC[C@H]2[C@@H](C)C(=O)O[C@@H]3O[C@@]4(C)CC[C@@H]1[C@]32OO4 [Artemisinin, artemisinin] | 0 | 2 (2 = active) | 1 (1 = weakly active) | 0 (0 = inactive) |  |  |  |  |  |  |  |  |  |  |  | 
2 | CC(=O)O[C@@H]1O[C@@H]2O[C@@]3(C)CC[C@H]4[C@H](C)CC[C@@H]([C@H]1C)[C@@]24OO3 [Example 1, 10-dihydroartemisinyl ethanoate] | 2 |  |  | 1 (1 = weakly active) | 1 | 0 | 127.91 ng/mL | 172 ng/mL (≈ 526 nM) | 231 ng/mL (≈ 706 nM) | 0 (0 = inactive) | 119 ng/mL (≈ 365 nM) | 163 ng/mL (≈ 500 nM) | 86.88 ng/mL |  |  | 
3 | C[C@H]1[C@@H](OC(=O)c2ccccc2)O[C@@H]2O[C@@]3(C)CC[C@H]4[C@H](C)CC[C@@H]1[C@@]24OO3 [Example 2, 10β-dihydroartemisinyl benzoate] | 2 | 2 (2 = active) | 2 (2 = active) | 0 (0 = inactive) | 1 | 0 | 0.02 ng/mL |  |  |  | 0.07 ng/mL (≈ 0.18 nM) | 0.21 ng/mL (≈ 0.541 nM) |  | 0.03 ng/mL (≈ 0.0772 nM) | 0.03 ng/mL (≈ 0.0772 nM) | 0.03 ng/mL
4 | C[C@H]1[C@@H](OC(=O)c2ccc3c(c2)C(=O)c2ccccc2C3=O)O[C@@H]2O[C@@]3(C)CC[C@H]4[C@H](C)CC[C@@H]1[C@@]24OO3 [Example 7] |  |  |  |  |  |  | 0.27 ng/mL |  |  |  | 0.48 ng/mL (≈ 0.926 nM) | 1.1 ng/mL (≈ 2.12 nM) |  | 0.44 ng/mL (≈ 0.849 nM) | 0.71 ng/mL (≈ 1.37 nM) | 0.21 ng/mL
5 | C[C@H]1[C@H](OC(=O)CCC(=O)[O-])O[C@@H]2O[C@@]3(C)CC[C@H]4[C@H](C)CC[C@@H]1[C@@]24OO3.[Na+] [Sodium Artesunate, sodium artesunate] | 2 |  | 2 (2 = active) | 2 (2 = active) | 0 |  |  |  |  | 0 (0 = inactive) |  |  |  |  |  | 
